Measured values from US20250163104A1, “MACROCYCLIC IMMUNOMODULATORS” (priority 2021, published 2025).
Where a SMILES comes first, the peptide text is derived from it. Bridges are numbered along the chain shown (N, C = ends). [ ]: non-standard residue; d: D form. Bip = N[C@@H](Cc1ccc(-c2ccccc2)cc1)C(=O)O; d(aThr) = C[C@@H](O)[C@@H](N)C(=O)O; Orn = NCCC[C@H](N)C(=O)O; Dab = NCC[C@H](N)C(=O)O

These molecules were tested against T1, human PD-1 / PD-L1-Ig binding on Jurkat cell line over-expressing human PD-1 (Jurkat-PD-1) (Homo sapiens, UniProt Q15116) (assay: Jurkat-PD-1 Cell Binding High-Content Screening Assay (CBA)). Conditions: Jurkat-PD-1 cells, PE-labeled PD-L1-Ig 20 nM final; read-out: Jurkat HPD1_PDL1 IC50.
T1 construct: expressed in transfected cells; host or cells: Jurkat
T1 sequence (Q15116 25-288): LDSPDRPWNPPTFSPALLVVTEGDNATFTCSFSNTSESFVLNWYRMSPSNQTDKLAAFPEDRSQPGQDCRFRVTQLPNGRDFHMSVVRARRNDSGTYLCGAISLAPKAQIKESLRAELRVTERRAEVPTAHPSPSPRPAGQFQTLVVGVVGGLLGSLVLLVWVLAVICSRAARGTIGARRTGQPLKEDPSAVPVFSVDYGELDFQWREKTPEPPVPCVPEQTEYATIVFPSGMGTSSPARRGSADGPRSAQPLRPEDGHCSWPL
Assay type: cell-based
Experimental: Example 3. Jurkat-PD-1 Cell Binding High-Content Screening Assay (CBA)
Jurkat-PD-1 Cell Binding High-Content Screening Assay (CBA). Phycoerythrin (PE) was covalently linked to the Ig epitope tag of human PD-L1-Ig and fluorescently-labeled PD-L1-Ig was used for binding studies with a Jurkat cell line over-expressing human PD-1 (Jurkat-PD-1). Briefly, 8×10^3 Jurkat-hPD-1 cells were seeded into 384 well plates in 20 μl of DMEM supplemented with 10% fetal calf serum. 100 nL of compound was added to cells followed by incubation at 37° C. for 2 h. Then, 5 μl of PE-labeled PD-L1-Ig (20 nM final), diluted in DMEM supplemented with 10% fetal calf serum. After 1 hour incubation, cells were fixed with 4% paraformaldehyde in dPBS containing 10 μg/ml Hoechst 33342 and then washed 3x in 100 μl dPBS. Data was collected and processed using a Cell Insight NXT High Content Imager and associated software.
An IC50 of 0.0108 µM was found for CC(C)C[C@@H]1NC(=O)[C@H](CCCCN)NC(=O)[C@@H](CC(C)C)NC(=O)[C@H](CCCN)NC(=O)[C@H](CCCNC(=N)N)NC(=O)[C@H](Cc2ccc(-c3ccccc3)cc2)NC(=O)[C@H](C(C)C)NC(=O)[C@H](Cc2c[nH]c3ccccc23)NC(=O)[C@H](CC(=O)O)NC(=O)[C@H](Cc2ccc(O)cc2)NC(=O)[C@H](CC(N)=O)NC(=O)CSC[C@@H](C(=O)N[C@@H](C)C(N)=O)NC(=O)[C@H]([C@@H](C)O)NC(=O)[C@H](C(C)C)NC1=O [Compound 1030] ({CH2CO}-NYDWV[Bip]R[Orn][dL]KLVTCA-NH2; thioether N-14) in this work.
An IC50 of 0.0874 µM was found for CC(C)C[C@@H]1NC(=O)[C@H](CCN)NC(=O)[C@@H](CC(C)C)NC(=O)[C@H](Cc2ccc(O)cc2)NC(=O)[C@H](C(C)C)NC(=O)[C@H](Cc2ccc(-c3ccccc3)cc2)NC(=O)[C@@H](C(C)C)NC(=O)[C@H](Cc2c[nH]c3ccccc23)NC(=O)[C@H](CC(=O)O)NC(=O)[C@H](Cc2ccc(O)cc2)NC(=O)[C@H](CC(N)=O)NC(=O)CSC[C@@H](C(=O)N[C@@H](C)C(N)=O)NC(=O)[C@@H]([C@@H](C)O)NC(=O)[C@H](C(C)C)NC1=O [Compound 1031] ({CH2CO}-NYDW[dV][Bip]VY[dL][Dab]LV[d(aThr)]CA-NH2; thioether N-14) in this work.
An IC50 of 0.0155 µM was found for CC(C)C[C@@H]1NC(=O)[C@H](CCN)NC(=O)[C@@H](CC(C)C)NC(=O)[C@@H](CC(C)C)NC(=O)[C@H](C(C)C)NC(=O)[C@H](Cc2ccc(-c3ccccc3)cc2)NC(=O)[C@H](C(C)C)NC(=O)[C@H](Cc2c[nH]c3ccccc23)NC(=O)[C@H](CC(=O)O)NC(=O)[C@H](Cc2ccc(O)cc2)NC(=O)[C@H](CC(N)=O)NC(=O)CSC[C@@H](C(=O)N[C@@H](C)C(N)=O)NC(=O)[C@H]([C@@H](C)O)NC(=O)[C@H](C(C)C)NC1=O [Compound 1032] ({CH2CO}-NYDWV[Bip]V[dL][dL][Dab]LVTCA-NH2; thioether N-14) in this work.
An IC50 of 0.0294 µM was found for CC(C)C[C@@H]1NC(=O)[C@H](CCN)NC(=O)[C@@H](CC(C)C)NC(=O)[C@H](CC(=O)O)NC(=O)[C@H](C(C)C)NC(=O)[C@H](Cc2ccc(-c3ccccc3)cc2)NC(=O)[C@H](C(C)C)NC(=O)[C@H](Cc2c[nH]c3ccccc23)NC(=O)[C@H](CC(=O)O)NC(=O)[C@H](Cc2ccc(O)cc2)NC(=O)[C@H](CC(N)=O)NC(=O)CSC[C@@H](C(=O)N[C@@H](C)C(N)=O)NC(=O)[C@H]([C@@H](C)O)NC(=O)[C@H](C(C)C)NC1=O [Compound 1033] ({CH2CO}-NYDWV[Bip]VD[dL][Dab]LVTCA-NH2; thioether N-14) in this work.
An IC50 of 0.099 µM was found for CC(C)C[C@@H]1NC(=O)[C@H](CCN)NC(=O)[C@@H](CC(C)C)NC(=O)[C@H](C(C)C)NC(=O)[C@H](C(C)C)NC(=O)[C@H](Cc2ccc(-c3ccccc3)cc2)NC(=O)[C@H](C(C)C)NC(=O)[C@H](Cc2c[nH]c3ccccc23)NC(=O)[C@H](CC(=O)O)NC(=O)[C@H](Cc2ccc(O)cc2)NC(=O)[C@H](CC(N)=O)NC(=O)CSC[C@@H](C(=O)N[C@@H](C)C(N)=O)NC(=O)[C@H]([C@@H](C)O)NC(=O)[C@H](C(C)C)NC1=O [Compound 1034] ({CH2CO}-NYDWV[Bip]VV[dL][Dab]LVTCA-NH2; thioether N-14) in this work.
An IC50 of 0.0264 µM was found for CC(C)C[C@@H]1NC(=O)[C@H](CCN)NC(=O)[C@@H](CC(C)C)NC(=O)[C@H](CC(N)=O)NC(=O)[C@H](C(C)C)NC(=O)[C@H](Cc2ccc(-c3ccccc3)cc2)NC(=O)[C@H](C(C)C)NC(=O)[C@H](Cc2c[nH]c3ccccc23)NC(=O)[C@H](CC(=O)O)NC(=O)[C@H](Cc2ccc(O)cc2)NC(=O)[C@H](CC(N)=O)NC(=O)CSC[C@@H](C(=O)N[C@@H](C)C(N)=O)NC(=O)[C@H]([C@@H](C)O)NC(=O)[C@H](C(C)C)NC1=O [Compound 1036] ({CH2CO}-NYDWV[Bip]VN[dL][Dab]LVTCA-NH2; thioether N-14) in this work.
